Like-named read-outs stand apart in the source and are kept apart here.
Assays:
[1] = tested on: acetylcholinesterase; assay: Acetylcholinesterase activity (Ellman) in extracts of protoscoleces, metacestodes and germinal cells; assay type: biochemical, Echinococcus multilocularis; conditions: extract; thiacloprid 5 μM, 37 °C 10 min; BW284c51 positive control
Method: The effects of thiacloprid on the acetylcholinesterase activity of E. multilocularis protoscoleces, metacestodes and germinal cells were determined according to a previously described method. The protoscoleces, metacestode and germinal cells were washed twice with PBS and homogenized with an electric homogenizer in precooled PBS. Centrifugation of the homogenates was performed at 100,000×g for 30 min. The protein concentration of the supernatant was determined by the modified Lowry method according to the instructions, and the concentration was adjusted to 2 mg/ml. Thiacloprid (5 μM) was added to the extract and incubated at 37 °C for 10 min. The extract was supplemented with 0.1% DMSO as control. Subsequently, acetylcholinesterase activity was assessed according to Ellman’s procedure using a microplate with 260 µl of 0.1 M PBS buffer pH 8.0, 10 µl of 10 mM dithiobisnitrobenzoic acid solution, 2.5 µl of 75 mM substrate (acetylthiocholine iodide) and 25 µl of the sample treated with thiacloprid. The OD increment was measured at 412 nm using an Infinite M200 PRO reader (Tecan). Each experiment was conducted three times. BW284c51 (CAS number: 402-40-4, Sigma) was used as a positive control.

[2] = tested on: E. multilocularis metacestodes; assay: In vivo treatment of mice experimentally infected with E. multilocularis metacestodes; design: species or system Echinococcus multilocularis
Method: (§1) In vitro-grown metacestode vesicles were pressed through a 500 µm mesh and washed three times with sterile PBS. The parasite tissue was then taken up in an equal volume of sterile PBS. Each mouse was intraperitoneally injected with 200 μl suspension. Seven mice were injected with 200 μl PBS as the control group. Twenty-eight infected mice were randomly distributed into four groups (7 mice/group): the untreated group was not administered any drug; the ABZ group was treated with ABZ orally (100 mg/kg/day); and the Thia15 group and Thia30 group received thiacloprid orally (15 mg/kg/day and 30 mg/kg/day). Treatments of mice started 2 weeks post-infection, and treatments were administered daily for 6 weeks. After 6 weeks of treatment, whole blood via the orbital sinus was collected from mice and the animals were euthanized by CO2. Blood samples were incubated at 37 °C for 1 h and centrifuged at 3500 rpm for 10 min at 4 °C. The serum was harvested and stored at –20 °C for IL-2, IL-4, IL-10 and IgE detection. All metacestode tissues were collected, and the total wet weight of metacestodes per mice was determined. Furthermore, the content of cytokines in microcyst fluid was detected by enzyme-linked immunosorbent assay (ELISA). Several metacestode tissue specimens were processed for transmission electron microscopy (TEM) and histopathological experiments.
Tissues from experimental animals were washed in PBS and fixed in 4% paraformaldehyde at room temperature for […]. On the next day, they were dehydrated, embedded, and sliced into 5-μm sections. After dewaxing and dehydrating, sections were stained with hematoxylin for 2–5 min, and re-stained with eosin for 15 s. They were sealed with neutral gum and observed under a BX51 microscope (Olympus, Tokyo, Japan).
A Periodic Acid Schiff Stain Kit (Solarbio, Beijing, China) was used to show the PAS-positive laminated layer characteristic of E. multilocularis metacestodes. The section (5 μm) was dewaxed in xylene and rehydrated in 100%, 95%, 80%, and 75% alcohol baths. Staining was then carried out according to the kit instructions.

[3] = tested on: collagen I and III, MMP1, MMP3, MMP9, MMP13; assay: Collagen and MMP expression in the host-lesion microenvironment (TEM, Sirius red, qPCR, western blot); assay type: in vivo; conditions: infected BALB/c mice, 6 weeks oral treatment
Method: The metacestodes were fixed with 4% paraformaldehyde and embedded in paraffin to make sections with a thickness of […]. The sections were dewaxed with water, stained with Picrosirius red for 10 min, rinsed and dehydrated with anhydrous ethanol, and sealed with neutral balsam after the xylene was transparent. Each section of 400× visual field image was randomly collected. The ratio of the area of all images collected to the area of the visual field was measured using the ImageJ analysis system, and the percentage of collagen fibre was calculated.
The variations in the microstructure of the protoscoleces or metacestodes were observed under an electron microscope. […] They were washed twice in PBS and then fixed for 3 h with 2.5% glutaraldehyde (pH = 7.2); next, they underwent 2 h post-fixation in 2% OsO4 (SPI-CHEM, West Chester, PA, USA). Subsequently, the samples were washed in double-distilled water and treated with 1% uranyl acetate for 25 min. After the samples were washed again in double-distilled water, dehydration was conducted in ethanol at continuous gradients (30–50–70–80–90–95–100%) over a period of 10 min. For SEM analysis, the dehydrated samples were dipped into hexamethyldisiloxane and then air-dried in a fume hood. The sample was observed under a Hitachi SU8100 scanning electron microscope (Tokyo, Japan) after gold spraying. For TEM analysis, the dehydrated samples passed through a dehydrating agent, and an epoxy resin (SPI-CHEM) permeated and polymerized at 60 °C overnight. A 50-nm ultra-thin section was prepared and then loaded on a 300-mesh copper grid. It was stained with uranyl acetate and lead citrate (SPI-CHEM). The sample was observed under a Hitachi HT7700 transmission electron microscope. To reduce the bias, electron microscopy was observed by professionals in the case of an unknown group.
Total RNA was extracted with TRIzol Reagent (Thermo Fisher Scientific, Waltham, MA, USA) according to the manufacturer’s instructions. The purity and concentrations of RNA were quantified using NanoDrop 2000 absorbance measurements at 260/280 nm. Total RNA was converted into cDNA sequences using the FastKing gDNA Dispelling RT SuperMix Kit (TIANGEN Biotech), and RT-qPCR was performed using the RealUniversal Color PreMix Kit (TIANGEN Biotech) on an ABI QuantStudio 5 system (Applied Biosystems, Waltham, MA, USA). The specific primers are shown in Additional file 4: Table S1. The PCR cycling conditions were as follows: pre-denaturation at 95 °C for 15 min followed by 40 cycles at 95 °C for 10 s and 60 °C for 34 s. The relative mRNA expression levels were quantified using the 2^−ΔΔCT method. RPS18 served as an internal control.
A total protein extraction kit (Solarbio) was used to extract cell or tissue total protein. The protein concentration was determined by the protein quantitative assay kit (Thermo Fisher Scientific). Then, electrophoresis was performed with 20–50 μg of protein sample. The protein was separated by sodium dodecyl sulfate polyacrylamide gel electrophoresis (SDS-PAGE) and transferred to a 0.22 μm PVDF membrane (Merck Millipore, Darmstadt, Germany). The PVDF membrane was blocked with 5% of nonfat powdered milk in Tris-buffered saline Tween 20 (TBST) for 1 h at room temperature. The membrane incubation with primary antibodies was performed at 4 °C overnight. The antibody information is listed in Additional file 5: Table S2. The membrane was washed with TBST and incubated with HRP-labeled secondary antibodies (1:5000, Abclonal, Wuhan, China) for 1 h at room temperature. Blotted membranes were visualized using enhanced chemiluminescence reagents (Thermo Fisher Scientific). Protein expression was depicted as the intensity of each protein relative to that of β-actin using ImageJ software.

[4] = tested on: IL-2, IL-4, IL-10 and IgE; assay: ELISA of cytokines and IgE in infected mice; assay type: in vivo; conditions: infected BALB/c mice, 6 weeks oral treatment
Method: as §1
ELISA was employed to detect serum IL-2, IL-4, IL-10 and IgE following the manufacturer's instructions. Mouse collagen I and collagen III ELISA kits were used to measure the levels of collagen I and collagen III in the cell culture supernatant after intervention with thiacloprid. All ELISA kits were provided by Elabscience Biotechnology Co., Ltd., Wuhan, China. The OD value at 450 nm was read with a Tecan Infinite M200 PRO enzyme reader (Männedorf, Switzerland), and the concentration was calculated according to the standard curve.

[5] = tested on: Human foreskin fibroblasts (HFF); assay: alamarBlue cytotoxicity assay, HFF; assay type: cell-based; conditions: Fibroblast, 120 h, 5 days
Method: (§2) An alamarBlue assay was used to assess the toxicity of thiacloprid to confluent and pre-confluent mammalian cells in vitro [29]. Human foreskin fibroblasts (HFF, Procell) and rat hepatoma cells (RH, Procell) were seeded into 96-well cell culture plates in DMEM supplemented with 10% FBS and 1% penicillin–streptomycin at 37 °C and 5% CO2. For detecting the growth inhibitory effects of confluent cells, HFF and RH cells were seeded at 10,000 cells per well and 50,000 cells per well, respectively. After overnight culture, thiacloprid or PZQ was added and diluted in serial concentrations (0, 0.6, 1.2, 2.5, 5, 10, 20, 40, 80 and 160 μM). For detecting growth inhibitory effects on proliferating cells, cells were seeded at 1000 (HFF) and 5000 (RH) cells per well. Thiacloprid was added after 5 h of cell attachment. To measure the viability of the cells after treatment for 5 days, the alamarBlue assay was employed and viability calculated as described previously.

[6] = tested on: Reuber rat hepatoma (RH) cells; assay: alamarBlue cytotoxicity assay, RH cells; assay type: cell-based; conditions: 120 h, 5 days
Method: as §2

[7] = tested on: E. multilocularis metacestodes; assay: PGI assay (phosphoglucose isomerase release) on metacestode vesicles; assay type: cell-based, Echinococcus multilocularis; conditions: Echinococcus multilocularis, 120 h, read-out: EC50 against E. multilocularis metacestode by the PGI assay
Method: The efficacy of thiacloprid against the E. multilocularis metacestode was evaluated by applying a phosphoglucose isomerase (PGI) assay that measures the release of the enzyme phosphoglucose isomerase upon physical impairment of metacestodes. In brief, medium without phenol red (DMEM, 1% penicillin/streptomycin sulfate, 2 mM L-glutamine) was added to the same volume of vesicles and distributed to 48-well (12–15 per vesicles) plates. Subsequently, metacestodes were incubated for 5 days with different concentrations (0, 0.06, 1.2, 2.5, 5, 10, 20, 40, 80 and 160 μM) of thiacloprid or praziquantel (PZQ), after which PGI release was quantified exactly as described in Stadelmann et al.. Triton X-100 (0.1% in PBS) was applied as a positive control (maximal release of vesicle fluid). Each condition was tested in biological triplicate. After 5 days of incubation, 200 μl medium supernatant was collected from each well and stored at − 20 °C until further measurements were performed. PGI measurements were performed as described earlier, except that an Infinite M200 PRO reader (Tecan, Männedorf, Switzerland) was used to measure the increase in absorbance at 340 nm. PGI activity was calculated using the EC50 calculator (https://www.aatbio.com/tools/ec50-calculator) from the linear regression of the enzyme reaction over time and presented as a percentage relative to the values obtained by treatment of vesicles with 0.1% Triton X-100.

[8] = tested on: E. multilocularis germinal cells; assay: CellTiter-Glo viability assay on germinal cells; assay type: cell-based, Echinococcus multilocularis; conditions: Echinococcus multilocularis, 120 h; 5 days; CellTiter-Glo; read-out: IC50 against germinal cells
Method: To evaluate the activity of thiacloprid against parasitic stem cells, germinal cells from in vitro metacestode vesicles were investigated as described by Spiliotis et al.. Briefly, 20 units of cells were distributed into a black 384-well plate. Different concentrations of thiacloprid or PZQ (0, 0.06, 1.2, 2.5, 5, 10, 20, 40, 80 and 160 μM) were added to the cells. After culture at 37 °C for 5 days under a humid nitrogen atmosphere, 25 μl CellTiter-Glo containing 1% Triton X-100 was added. The plates were incubated at room temperature in the dark for 15 min. After the total destruction of the cellular aggregates, luminescence was measured using an Infinite M200 PRO reader (Tecan), and 0 μM values were set to 100% viability. The IC50 values were calculated using an online IC50 calculator after logit-log transformation. Four independent replicates were conducted.

`C=CC[N+](C)(C)c1ccc(CCC(=O)CCc2ccc([N+](C)(C)CC=C)cc2)cc1.[Br-].[Br-]` [BW284c51] was tested, and the “Acetylcholinesterase activity in protoscoleces, metacestode vesicles and germinal cells” value [1] was “inhibited”.
For `CCCSc1ccc2nc(NC(=O)OC)[nH]c2c1` [ABZ, albendazole], the “HE staining of metacestodes from treated mice” value ([2]; 6 weeks oral treatment, thiacloprid 15 or 30 mg/kg/day, ABZ 100 mg/kg/day) was “germinal cells could still be observed”, the “Wet weight of the metacestodes” value ([2]; infected BALB/c mice, ABZ 100 mg/kg/day orally, 6 weeks, untreated 6.49 ± 1.18 g) was 1.85 ± 0.94 g and the “Collagen fiber deposition in the host-lesion microenvironment (TEM)” value [3] was “can promote”. The “mRNA expression of MMP1, MMP3, MMP9 and MMP13 in the microenvironment” value ([3]; qPCR) was “significantly inhibited”, the “mRNA and protein expression levels of collagen I and III in the host-lesion microenvironment” value ([3]; qPCR, western blot) was “increased” and the “Protein expression levels of MMP1, MMP3, MMP9 and MMP13” value ([3]; western blot) was “decreased”. The “Expression of IL-2, IL-4 and IL-10 in serum compared with the untreated group” value [4] was “consistent variations” and the “Expression of IgE in serum compared with the untreated group” value [4] was “consistent variations”.
For `O=C(C1CCCCC1)N1CC(=O)N2CCc3ccccc3C2C1` (stereo not drawn) [PZQ, praziquantel], the IC50 ([5]; confluent cells, read-out: IC50 on confluent HFF) was 53.2 ± 11.1 µM, the IC50 ([5]; pre-confluent cells, read-out: IC50 on pre-confluent HFF) was 6.71 ± 1.88 µM and the IC50 ([6]; confluent cells, read-out: IC50 on confluent RH cells) was 25.3 ± 6.32 µM. It also gave an IC50 ([6]; pre-confluent cells, read-out: IC50 on pre-confluent RH cells) of 11.6 ± 3.52 µM, an EC50 [7] of 7.41 ± 2.09 µM and an IC50 [8] of 2.59 ± 0.33 µM.

— article PMC8419995, “In vitro and in vivo efficacy of thiacloprid against Echinococcus multilocularis” (Parasites & Vectors, 2021)
